Results from ChEMBL document CHEMBL5696442, “Discovery of type II inhibitors of TGFβ-activated kinase 1 (TAK1) and mitogen-activated protein kinase kinase kinase kinase 2 (MAP4K2)” (J Med Chem, 2015).
Calls of active or inactive are those of the source. The rule behind the calls is not given here.

Tests used:
[1] = target: Tyrosine-protein kinase Lck (Homo sapiens) (UniProt P06239); assay: Inhibition of LCK (unknown origin) at 10 uM by Ambit Kinomescan binding assay relative to control
[2] = target: T1, PAN2-PAN3 deadenylation complex subunit PAN3 (Homo sapiens) (UniProt Q58A45); assay: Inhibition of PAN3 ATP labeling site in human A-375 cells at 0.05 uM by KiNativ Profiling analysis relative to control; format: cell-based
T1 sequence (whole entry): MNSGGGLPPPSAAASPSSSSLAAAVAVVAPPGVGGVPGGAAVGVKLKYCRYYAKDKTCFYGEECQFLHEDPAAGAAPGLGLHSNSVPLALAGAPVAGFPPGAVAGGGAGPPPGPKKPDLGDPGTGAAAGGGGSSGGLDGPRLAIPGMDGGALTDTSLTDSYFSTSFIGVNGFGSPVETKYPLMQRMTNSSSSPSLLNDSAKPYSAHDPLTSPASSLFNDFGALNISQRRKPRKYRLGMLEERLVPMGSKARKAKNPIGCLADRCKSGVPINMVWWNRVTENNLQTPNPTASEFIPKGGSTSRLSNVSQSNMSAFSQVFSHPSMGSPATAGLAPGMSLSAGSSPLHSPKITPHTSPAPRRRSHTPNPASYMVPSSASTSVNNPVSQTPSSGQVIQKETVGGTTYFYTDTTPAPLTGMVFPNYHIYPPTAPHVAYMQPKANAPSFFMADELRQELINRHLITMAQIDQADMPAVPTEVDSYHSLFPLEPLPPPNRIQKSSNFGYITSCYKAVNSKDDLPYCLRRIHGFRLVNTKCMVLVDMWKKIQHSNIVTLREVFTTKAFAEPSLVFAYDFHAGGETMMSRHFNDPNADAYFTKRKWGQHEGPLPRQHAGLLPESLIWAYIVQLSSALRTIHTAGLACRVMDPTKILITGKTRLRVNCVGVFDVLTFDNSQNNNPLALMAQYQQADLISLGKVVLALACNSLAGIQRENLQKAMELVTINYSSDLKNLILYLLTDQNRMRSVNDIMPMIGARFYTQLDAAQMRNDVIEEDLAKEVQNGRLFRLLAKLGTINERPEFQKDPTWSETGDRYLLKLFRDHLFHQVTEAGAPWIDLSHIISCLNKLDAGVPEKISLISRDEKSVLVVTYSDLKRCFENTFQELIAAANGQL

[3] = target: Serine/threonine-protein kinase PAK 6 (Homo sapiens) (UniProt Q9NQU5); assay: Inhibition of PAK6 (unknown origin) at 10 uM by Ambit Kinomescan binding assay
Chain of Serine/threonine-protein kinase PAK 6 (Homo sapiens) (Q9NQU5 whole entry, looked up): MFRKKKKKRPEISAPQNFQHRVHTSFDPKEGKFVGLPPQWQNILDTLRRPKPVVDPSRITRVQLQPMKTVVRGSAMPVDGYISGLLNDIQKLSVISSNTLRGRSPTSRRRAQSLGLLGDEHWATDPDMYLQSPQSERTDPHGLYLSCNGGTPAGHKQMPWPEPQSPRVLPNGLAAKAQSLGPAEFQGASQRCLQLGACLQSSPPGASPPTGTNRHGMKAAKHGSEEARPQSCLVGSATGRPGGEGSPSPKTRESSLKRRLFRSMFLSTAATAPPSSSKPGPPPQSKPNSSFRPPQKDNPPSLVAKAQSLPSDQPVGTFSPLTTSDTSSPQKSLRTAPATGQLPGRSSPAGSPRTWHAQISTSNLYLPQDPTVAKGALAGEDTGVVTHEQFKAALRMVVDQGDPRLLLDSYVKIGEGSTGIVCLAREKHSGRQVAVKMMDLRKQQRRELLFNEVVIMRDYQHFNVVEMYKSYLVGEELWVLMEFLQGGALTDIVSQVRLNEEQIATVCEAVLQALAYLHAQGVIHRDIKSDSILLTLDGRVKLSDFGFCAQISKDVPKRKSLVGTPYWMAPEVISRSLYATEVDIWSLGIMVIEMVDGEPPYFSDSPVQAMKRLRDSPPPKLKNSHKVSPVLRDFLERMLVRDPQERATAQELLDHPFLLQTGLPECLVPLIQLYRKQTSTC

[4] = target: Serine/threonine-protein kinase 10 (Homo sapiens) (UniProt O94804); assay: Inhibition of LOK Lys2 labeling site harbouring IIHRDLKAGNVLMTLEGDIR in human Huh-7 cell lysate at 1 uM by KiNativ Profiling analysis relative to control; format: subcellular
Chain of Serine/threonine-protein kinase 10 (Homo sapiens) (O94804 whole entry, looked up): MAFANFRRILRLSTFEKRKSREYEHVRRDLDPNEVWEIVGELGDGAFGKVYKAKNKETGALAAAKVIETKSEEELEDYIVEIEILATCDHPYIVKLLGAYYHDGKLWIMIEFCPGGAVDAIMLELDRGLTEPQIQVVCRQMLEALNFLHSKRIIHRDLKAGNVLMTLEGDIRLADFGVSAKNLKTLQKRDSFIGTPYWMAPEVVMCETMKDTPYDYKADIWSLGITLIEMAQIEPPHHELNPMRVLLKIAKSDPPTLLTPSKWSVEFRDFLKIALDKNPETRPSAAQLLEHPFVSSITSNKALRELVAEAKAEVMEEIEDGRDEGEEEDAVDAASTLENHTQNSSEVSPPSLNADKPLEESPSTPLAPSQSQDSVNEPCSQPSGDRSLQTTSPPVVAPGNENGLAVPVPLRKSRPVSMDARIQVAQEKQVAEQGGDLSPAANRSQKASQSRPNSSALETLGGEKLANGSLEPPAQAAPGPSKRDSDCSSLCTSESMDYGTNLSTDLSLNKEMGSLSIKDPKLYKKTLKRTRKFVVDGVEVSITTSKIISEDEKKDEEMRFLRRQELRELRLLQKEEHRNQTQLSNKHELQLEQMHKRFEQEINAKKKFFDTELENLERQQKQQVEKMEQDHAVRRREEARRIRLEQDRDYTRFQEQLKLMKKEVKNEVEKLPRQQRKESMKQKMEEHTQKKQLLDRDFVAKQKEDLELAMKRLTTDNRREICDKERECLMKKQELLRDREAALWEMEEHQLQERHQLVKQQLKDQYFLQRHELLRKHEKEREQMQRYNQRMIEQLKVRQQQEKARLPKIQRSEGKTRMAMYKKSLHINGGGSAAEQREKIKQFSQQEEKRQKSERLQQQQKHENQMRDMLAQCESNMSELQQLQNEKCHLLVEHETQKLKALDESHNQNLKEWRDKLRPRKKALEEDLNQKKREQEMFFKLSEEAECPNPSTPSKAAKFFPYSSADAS

[5] = target: Serine/threonine-protein kinase PLK1 (Homo sapiens) (UniProt P53350); assay: Inhibition of PLK1 Lys1 labeling site harbouring EVFAGKIVPK in human Huh-7 cell lysate at 1 uM by KiNativ Profiling analysis relative to control; format: subcellular
Chain of Serine/threonine-protein kinase PLK1 (Homo sapiens) (P53350 whole entry): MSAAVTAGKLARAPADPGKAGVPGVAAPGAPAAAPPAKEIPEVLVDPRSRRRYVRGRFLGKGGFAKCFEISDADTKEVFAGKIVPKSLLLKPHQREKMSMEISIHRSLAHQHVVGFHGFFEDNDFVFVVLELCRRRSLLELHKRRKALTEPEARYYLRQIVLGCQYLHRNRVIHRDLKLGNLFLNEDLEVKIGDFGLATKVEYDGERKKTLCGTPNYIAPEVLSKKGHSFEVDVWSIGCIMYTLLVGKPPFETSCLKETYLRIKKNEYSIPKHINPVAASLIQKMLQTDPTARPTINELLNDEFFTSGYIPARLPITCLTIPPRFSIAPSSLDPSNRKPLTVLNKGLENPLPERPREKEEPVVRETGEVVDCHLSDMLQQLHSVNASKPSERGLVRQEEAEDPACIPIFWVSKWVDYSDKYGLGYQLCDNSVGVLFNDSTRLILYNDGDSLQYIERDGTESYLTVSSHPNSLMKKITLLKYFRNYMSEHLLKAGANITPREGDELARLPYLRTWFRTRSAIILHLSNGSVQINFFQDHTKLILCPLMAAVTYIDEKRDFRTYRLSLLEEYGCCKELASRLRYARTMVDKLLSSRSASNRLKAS

[6] = target: Tyrosine-protein kinase CSK (Homo sapiens, UniProt P41240); assay: Inhibition of CSK (unknown origin) at 1 uM by Ambit Kinomescan binding assay relative to control
Chain of Tyrosine-protein kinase CSK (P41240 2-450 limits assumed): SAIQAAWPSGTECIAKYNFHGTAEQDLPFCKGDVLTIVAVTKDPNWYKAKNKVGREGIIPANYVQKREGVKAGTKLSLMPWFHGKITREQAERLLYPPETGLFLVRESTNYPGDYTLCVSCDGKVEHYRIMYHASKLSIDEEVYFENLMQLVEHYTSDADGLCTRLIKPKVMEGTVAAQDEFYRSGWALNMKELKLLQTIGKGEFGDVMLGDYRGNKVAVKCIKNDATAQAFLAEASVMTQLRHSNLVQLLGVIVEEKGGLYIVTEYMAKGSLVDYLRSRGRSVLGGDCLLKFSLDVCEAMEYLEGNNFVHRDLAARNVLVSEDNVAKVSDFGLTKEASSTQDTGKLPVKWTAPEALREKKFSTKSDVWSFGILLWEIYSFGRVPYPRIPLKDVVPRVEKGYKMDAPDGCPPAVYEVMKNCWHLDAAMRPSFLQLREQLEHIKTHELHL

[7] = target: T2, Serine/threonine-protein kinase D2 (Homo sapiens) (UniProt Q9BZL6); assay: Inhibition of PRKD2 (unknown origin) at 1 uM by Ambit Kinomescan binding assay relative to control
T2 sequence (whole entry): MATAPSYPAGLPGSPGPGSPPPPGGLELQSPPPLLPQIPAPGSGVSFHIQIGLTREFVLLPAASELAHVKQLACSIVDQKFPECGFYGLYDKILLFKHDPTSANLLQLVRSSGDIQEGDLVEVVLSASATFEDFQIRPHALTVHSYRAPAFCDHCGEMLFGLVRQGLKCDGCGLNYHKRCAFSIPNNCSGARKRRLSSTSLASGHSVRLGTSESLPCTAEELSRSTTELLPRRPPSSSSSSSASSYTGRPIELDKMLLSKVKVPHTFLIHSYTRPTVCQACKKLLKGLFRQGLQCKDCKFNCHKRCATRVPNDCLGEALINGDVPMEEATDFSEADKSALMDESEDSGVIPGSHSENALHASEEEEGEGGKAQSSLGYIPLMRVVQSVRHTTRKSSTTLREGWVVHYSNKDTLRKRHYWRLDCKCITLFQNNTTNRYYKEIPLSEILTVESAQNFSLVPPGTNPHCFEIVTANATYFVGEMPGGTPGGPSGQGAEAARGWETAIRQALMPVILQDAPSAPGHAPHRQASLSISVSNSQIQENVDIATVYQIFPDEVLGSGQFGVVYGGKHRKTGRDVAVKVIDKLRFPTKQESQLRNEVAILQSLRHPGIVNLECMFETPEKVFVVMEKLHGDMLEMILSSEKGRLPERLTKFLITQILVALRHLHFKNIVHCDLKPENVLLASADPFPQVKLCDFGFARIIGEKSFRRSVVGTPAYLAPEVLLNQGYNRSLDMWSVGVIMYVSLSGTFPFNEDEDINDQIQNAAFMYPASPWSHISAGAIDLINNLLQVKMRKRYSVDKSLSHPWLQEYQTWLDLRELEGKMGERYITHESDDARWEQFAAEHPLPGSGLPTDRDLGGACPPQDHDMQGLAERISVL

[8] = system: Receptor-type tyrosine-protein kinase FLT3 (Homo sapiens), P36888 [K663Q]; assay: Inhibition of FLT3 K663Q mutant (unknown origin) at 1 uM by Ambit Kinomescan binding assay relative to control; values are per cent of control
[9] = target: Serine/threonine-protein kinase pim-1 (Homo sapiens) (UniProt P11309); assay: Inhibition of PIM1 (unknown origin) at 1 uM by Ambit Kinomescan binding assay relative to control; values are per cent of control
Chain of Serine/threonine-protein kinase pim-1 (Homo sapiens) (P11309 whole entry, looked up): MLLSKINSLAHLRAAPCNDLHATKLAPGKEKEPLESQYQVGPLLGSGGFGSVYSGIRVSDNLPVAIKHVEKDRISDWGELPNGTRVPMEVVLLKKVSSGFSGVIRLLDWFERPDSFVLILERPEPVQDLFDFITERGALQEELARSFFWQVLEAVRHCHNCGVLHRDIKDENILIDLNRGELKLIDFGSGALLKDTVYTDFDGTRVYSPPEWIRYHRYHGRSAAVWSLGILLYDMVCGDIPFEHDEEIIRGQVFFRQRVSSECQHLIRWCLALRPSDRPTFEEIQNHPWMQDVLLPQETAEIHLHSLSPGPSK

Chain of Tyrosine-protein kinase Lck (Homo sapiens) (P06239 2-509 limits assumed): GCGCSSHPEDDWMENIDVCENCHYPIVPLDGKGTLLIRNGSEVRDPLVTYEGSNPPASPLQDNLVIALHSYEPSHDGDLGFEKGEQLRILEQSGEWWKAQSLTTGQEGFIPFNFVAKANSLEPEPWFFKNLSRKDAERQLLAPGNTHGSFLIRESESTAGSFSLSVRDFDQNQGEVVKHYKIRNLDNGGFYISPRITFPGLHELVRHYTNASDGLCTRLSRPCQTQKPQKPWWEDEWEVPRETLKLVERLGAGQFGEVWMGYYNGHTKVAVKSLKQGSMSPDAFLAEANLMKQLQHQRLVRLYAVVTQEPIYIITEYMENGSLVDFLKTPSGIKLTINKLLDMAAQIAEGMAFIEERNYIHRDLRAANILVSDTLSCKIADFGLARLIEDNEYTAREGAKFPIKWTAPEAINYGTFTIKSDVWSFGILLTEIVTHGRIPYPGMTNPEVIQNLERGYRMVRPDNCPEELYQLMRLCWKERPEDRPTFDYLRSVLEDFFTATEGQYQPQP

Structure (SMILES): CCN1CCN(Cc2ccc(NC(=O)c3ccc(C)c(Oc4ccnc5[nH]ccc45)c3)cc2C(F)(F)F)CC1
- inhibition [1]: 0.8%
- inhibition [2]: 7%
- inhibition [3]: inactive

Structure (SMILES): CNc1cc(Oc2cc(C(=O)Nc3cc(N4CCN(C)CC4)cc(C(F)(F)F)c3)ccc2C)ncn1
- inhibition [4]: 12.3%
- inhibition [5]: 1.8%

Structure (SMILES): CCN1CCN(Cc2ccc(NC(=O)c3ccc(C)c(/C=C/c4cnc5[nH]ccc5c4OC)c3)cc2C(F)(F)F)CC1
- inhibition [6]: 2%
- inhibition [7]: 81%
- residual activity [8]: 0.15%
- residual activity [9]: 100%
